According to patent US11510410B2, “Pediculicidal composition” (DR. REDDY'S LABORATORIES, S.A., priority 2013, dated 2022):

Key:
[1] = tested on: Pediculus humanus capitis eggs; assay: Effect of formulated 5,5′-dimethyl-2,2′-dipyridyl on egg hatching (Example 3); conditions: for Stage of development: eggs with eye development / Stage of development: eggs with no eye development / Stage of development: eggs hatched: 10 eggs
Experimental: Gravid female lice were permitted to lay eggs over a 24 hour period. The eggs were counted, inspected under a light microscope and all eggs that appeared undamaged were allocated to one of two treatment groups. One group of 10 eggs was exposed to 5,5′-dimethyl-2,2′-dipyridyl in a formulation (52-06-01), while the second group of 10 eggs was exposed to the formulation only (vehicle, 52-06-02) Table 2. The two formulations were as follows: […]
Following a 10 minute exposure to either the 52-06-01 or […] formulations the eggs were subsequently washed for 1 minute with water (˜37° C.) before being placed at 31° C. in a humid incubator and monitored over time for signs of development specifically of the eyes and through to subsequent hatching.

[2] = tested on: Pediculus humanus humanus eggs; assay: In vitro ovicidal efficacy, 0.74% w/w composition versus vehicle (Example 6); conditions: compared to the vehicle formulation
Experimental: This formulation including 0.5% BHT was also evaluated for its ovicidal activity.

[3] = tested on: Pediculus humanus capitis eggs; assay: Ex vivo ovicidal efficacy, double-blind vehicle-controlled randomized clinical trial (Example 7)
Experimental: In this study the formulation as listed in Table 9 containing 0.74% 5,5′-dimethyl-2,2′-dipyridyl, (abametapir), was evaluated in a double-blind, vehicle-controlled randomized clinical trial. The primary aim of the trial was to evaluate the ovicidal efficacy of a single application of abametapir lotion 0.74% w/w intended for the treatment of head lice. The primary end point was the proportion of hatched eggs pre-treatment relative to proportion of hatched eggs post-treatment for the formulation containing abametapir and vehicle treated eggs following a 14 day incubation.
This ex vivo study involved identifying subjects with an active head lice infestation (active being defined as the presence of at least 3 live lice and at least 10 undamaged eggs). A minimum of 5 undamaged eggs were collected both pre and post treatment and their predicted viability assessed under a dissecting microscope before being incubated in a temperature and humidity controlled incubator (30° C. and 60% RH) for 14 days to provide adequate time for the eggs to hatch. After 14 days eggs were assessed as either hatched, unhatched, or partially hatched.

[4] = tested on: head lice Pediculus humanus capitis infestation; assay: In vivo efficacy in subjects with head lice infestation, two dose levels (Example 8); conditions: single 10 minute application, human subjects 3 years or older
Experimental: (§1) One hundred and forty two (142) pediatric and adult subjects, three (3) years of age or older, with an active head lice infestation were enrolled in the study. This study assessed the efficacy of a single application of 2 different dose levels (0.37% w/w and 0.74% w/w of 5,5′-dimethyl-2,2′-dipyridyl) compared to a vehicle control. The formulations were prepared as described in Table 9. Subjects were treated for 10 minutes with a lotion containing one of two dose levels of 5,5′-dimethyl-2,2′-dipyridyl or the vehicle lotion. After 10 minutes the lotion was rinsed out of the subjects hair with water and towel dried. At day 1, 7 and 14 post treatment the hair was examined for the presence of live lice. If any live lice were detected on any of the three visits the subject was deemed a treatment failure. The primary endpoint to the study was that proportion of subjects who were lice free at day 14.

[5] = Safety of single application in subjects (Example 8); format: in vivo, human; conditions: single application at two dose levels 0.37% w/w and 0.74% w/w
Experimental: as §1

[6] = Safety of single application in Phase 3 studies (Example 9); format: in vivo, human; conditions: single application 0.74% w/w
Experimental: A total of seven hundred and four (704) pediatric and adult subjects, six (6) months of age or older, with an active head lice infestation were enrolled in two separate Phase 3 studies. These studies assessed the efficacy of a single application of 0.74% w/w abametapir compared to a vehicle control (refer Table 9, above). Subjects were treated for 10 minutes with a lotion containing abametapir or the vehicle lotion alone. After 10 minutes the lotion was rinsed out of the subjects hair with water and towel dried. At day 1, 7 and 14 post treatment the hair was examined for the presence of live lice. If any live lice were detected on any of the three visits the subject was deemed a treatment failure. The primary endpoint to the study was that proportion of index subjects (youngest member of the household with at least 3 live lice at the commencement of the study) who were lice free at all follow-up visits through day 14.

[7] = Day 1 of observation, formulation 52-06-01 (0.38%), 10 minute exposure
[8] = Day 4, formulation 52-06-01, 10 minute exposure
[9] = Day 5, formulation 52-06-01, 10 minute exposure
[10] = Day 6, formulation 52-06-01, 10 minute exposure
[11] = Day 7, formulation 52-06-01, 10 minute exposure
[12] = Day 12, formulation 52-06-01, 10 minute exposure

## Cc1ccc(-c2ccc(C)cn2)nc1 [5,5′-dimethyl-2,2′-dipyridyl]
[1]; [7]
  Stage of development: eggs with eye development: 1 eye development
  Stage of development: eggs with no eye development: 9 no eye development
[1]; [8]
  Stage of development: eggs hatched: 1 hatched
  Stage of development: eggs with eye development: 1 eye development
  Stage of development: eggs with no eye development: 8 no eye development
[1]; [9]
  Stage of development: eggs hatched: 1 hatched
  Stage of development: eggs with eye development: 1 eye development
  Stage of development: eggs with no eye development: 8 no eye development
[1]; [10]
  Stage of development: eggs hatched: 1 hatched
  Stage of development: eggs with eye development: 1 eye development
  Stage of development: eggs with no eye development: 8 no eye development
[1]; [11]
  Stage of development: eggs hatched: 1 hatched
  Stage of development: eggs with eye development: 1 eye development
  Stage of development: eggs with no eye development: 8 no eye development
[1]; [12]
  Stage of development: eggs hatched: 1 hatched
  Stage of development: eggs with eye development: 1 eye development
  Stage of development: eggs with no eye development: 8 no eye development
[1]; overall, ten eggs, 0.37% w/w formulation, 10 minute exposure
  eggs in the treatment arm failed to hatch: 90%
[2]
  ovicidal activity (in words): significant ovicidal activity
[3]; eggs collected after single application, 14 day incubation, N = 25
  Egg hatch Post-treatment: 0%
[3]; eggs collected pre-treatment (baseline), 14 day incubation, N = 25
  Egg hatch Pre-treatment: 93.3%
[3]; generalized estimating equation model
  Total absolute reduction in hatch rate (CI 95%): 92.9%
[3]; p < 0.0001
  The treatment difference in the absolute reduction of hatch rates (abametapir minus Vehicle): 50.6%
[3]; post-treatment, 14 day incubation
  ovicidal efficacy (eggs treated failed to hatch): 100%
[4]; 0.37% w/w lotion
  subjects with treatment success (lice free at day 14): 67.4%
[4]; 0.74% w/w lotion
  subjects with treatment success (lice free at day 14): 85.7%
[5]
  safety results: safe and well tolerated
[6]
  safety results: safe and well tolerated
